Test results taken from patent US12194084B2 (priority 2019, dated 2025).

Tested on: CD1b-restricted MA-specific TCR transgenic DN1 T cells
Assay type: cell-based, mouse

## mycolic acid [MA]
  IFN-γ production by DN1 T cells to MA-pulsed DC (ELISPOT): produced IFN-γ
  activation of DN1 T cells (CD69, CD25, IFN-γ): able to activate DN1 T cells
